# Experimental data from US20080207750A1, “Use of N-Chlorotaurine for Treatment of Oozing Tissue Deficiencies” (Pathogenics LLC, priority 2002, published 2008).
# How the values were obtained:
# [1] = Storage stability of aqueous NCT solutions; assay type: physicochemical; details: 1% (55 mM) aqueous solution stored at 2-4° C.
# Protocol: (§1) Reagents: Pure NCT as a crystalline sodium salt was dissolved in sterile distilled water to a concentration of 1% (55 mM). Purity was verified by iodometric titration and spectrophotometry. […] Solutions were stored at 2-4° C., where they are stable for 1 year, and allowed to reach room temperature before application to the patients.
# [2] = pH of aqueous solutions of NCT; assay type: physicochemical
# Protocol: as §1
# [3] = test system: oozing ear channel; assay: Treatment of the oozing ear channel after tympanoplasty with aqueous 1% NCT solution (case reports); assay type: in vivo, human; details: for time until oozing ceased / complete epithelization achieved earlier than by the conventional treatment with fuchsine / incorporation of the temporal fascia: tympanoplasty
# From the text: Rinsing the ear channel with NCT solution provokes in general a drying of the ear channel and the tympanoplastic within 1-2 days.
# A human patient with a traumatic perforation of the tympanic membrane was provided with a tympanoplasty. After removing incrustations and granulation tissue, the destroyed tympanic membrane was excised and substituted by a fascia temporalis. After taking away the tamponade, the microbiological culture of a swab from the reconstructed tympanic membrane and the ear channel was sterile. Subsequently, the oozing ear channel was treated one time daily for two days by instillation of 2 mL of aqueous 1% NCT solution. […] The complete epithelization was achieved 3 days earlier than by the conventional treatment with fuchsine.
# A human patient suffering from a perforation of the tympanic membrane caused by a chronic inflammation of the middle ear received tympanoplasty. After removing incrustations and granulation tissue, the destroyed tympanic membrane was excised and substituted by a fascia temporalis. After taking away the tamponade, the microbiological culture of a swab from the reconstructed tympanic membrane and the ear channel was sterile. Subsequently, the oozing and swollen ear channel was treated one time daily for five days by instillation of 2 mL of aqueous 1% NCT solution. […] The complete epithelization was achieved 3 days earlier than by the conventional treatment with fuchsine.
# [4] = test system: outer ear canal; assay: Pilot study (open phase IIa): irrigation of the external auditory canal with 1% NCT after tympanoplasty; assay type: in vivo, human; details: 12 patients
# Protocol: Procedures: Local irrigations of the external auditory canal with 3 ml of 1% N-chlorotaurine solution were performed once daily until the canal was dry.
# as §1
# Study Design: An open phase IIa study was performed in 12 patients after tympanoplasty. They received a single-shot antibiotic therapy with 2 g Spizef (cefotiam) i.v. perioperatively.
# All subjects were treated with 1% N-chlorotaurine.
# Subjects: The study population included 6 female and 6 male human patients, ranging in age from 32 to 66 years (median 48,1 years). Inclusion criteria was status post tympanoplasty. Exclusion criteria included topical treatment with other agents, systemic application of antibiotics or corticoids, pregnancy, and simultaneous participation in another study. No patients had to be withdrawn after inclusion.
# Treatment and Time Course: After removing the ear-tamponade, which remained in place for 2 to 3 weeks postoperatively, 3 ml of the 1% aqueous NCT solution was applied once daily to the outer ear canal. The endpoint of the treatment was defined as a completely dry canal, corresponding to a clinical score of zero (see below for scoring).
# Evaluation and Statistical Analysis: The primary criterion for the judgement of the status of the external meatus was a six-scale clinical score (0-5) based on visual observation via ear microscopy (zero=dry outer ear canal; 5=moist outer ear canal with inflammation).
# The second criterion was subjective pain, ascertained by a visual analogue scale.
# Clinical examination of the outer ear canal was performed daily for detection of moisture, signs of infection, and judgement of epithelisation of the neo-tympanon.
# A completely dry external meatus (score zero) was considered as the endpoint criterion for the termination of the study.
# Before and at the end of the study an audiogram was performed in all patients.
# Moisture and inflammation of the external auditory canal during and after irrigation with NCT were compared to those before treatment using the Wilcoxon test. P-values<0.05 were considered to indicate statistical significance. Due to the limited number of patients no corrections for multiple comparisons were applied.
# [5] = test system: open leg ulcer with fibrous coating; assay: Treatment of open leg ulcer with fibrous coating with wound dressing soaked with aqueous 1% NCT solution; assay type: in vivo, human; details: Example 3: person, burn accident; dressing soaked with aqueous 1% NCT two times daily
# Protocol: A human patient suffering from an open leg ulcer with fibrous coating caused by a burn accident was treated two times daily with wound dressing soaked with aqueous 1% NCT solution. […] Microbiological cultures of swabs before and after therapy were sterile.
# [6] = Example 1: person, 2 mL aqueous 1% NCT one time daily for two days
# [7] = Example 2: person, 2 mL aqueous 1% NCT one time daily for five days
# [8] = 3 ml 1% NCT once daily, score zero = dry outer ear canal
smiles,measurement,setting,value
"O=S(=O)(O)CCNCl [NCT, N-chlorotaurine]",stability of solutions on storage,[1],1 year
same,pH,[2],8
same,time until oozing ceased,"[3]; Example 1: person, 2 mL aqueous 1% NCT instilled one time daily for two days",one
same,complete epithelization achieved earlier than by the conventional treatment with fuchsine,[3]; [6],3 days
same,incorporation of the temporal fascia,[3]; [6],proceeded without problems
same,time until oozing ceased,"[3]; Example 2: person, 2 mL aqueous 1% NCT instilled one time daily for five days",three
same,complete epithelization achieved earlier than by the conventional treatment with fuchsine,[3]; [7],3 days
same,incorporation of the temporal fascia,[3]; [7],proceeded without problems
same,drying of the ear channel and the tympanoplastic,"[3]; rinsing the ear channel with NCT solution, in general",1 to 2 days
same,dizziness or nystagmus,[4]; 3 ml 1% NCT once daily,No dizziness or nystagmus occurred
same,drying of the outer ear canal,[4]; 3 ml 1% NCT once daily,Rapid drying of the outer ear canal was detected in all patients
same,epithelisation of the new tympanon on ear microscopy,[4]; 3 ml 1% NCT once daily,proceeded regularly without granulation
same,infection in the postoperative course,[4]; 3 ml 1% NCT once daily,No infection occurred
same,time needed for complete epithelisation (mean±SD),[4]; 3 ml 1% NCT once daily,22.6 ± 3.5 days
same,time needed for complete epithelisation (range),[4]; 3 ml 1% NCT once daily,18 to 31 days
same,tolerability of treatment,[4]; 3 ml 1% NCT once daily,tolerated very well by all patients
same,average clinical score (0-5) of the outer ear canal,"[4]; 3 ml 1% NCT once daily, days 2-5 vs. baseline day 1, Wilcoxon test",decreased daily
same,necessary time for achieving a score of zero (mean±SD),[4]; [8],2.75 ± 0.87 days
same,necessary time for achieving a score of zero (range),[4]; [8],2 to 5 days
same,subjective pain,"[4]; 3 ml 1% NCT once daily, visual analogue scale",without occurrence of any pain
same,damage to the inner ear,[4]; audiogram before and after treatment,no signs of damage to the inner ear
same,allergic reactions,[4]; whole period of treatment,no signs of allergic reactions
same,healing process,[5],went on without problems
same,treatment time until the fibrous coating disappeared,[5],three
